Measurements reported in US20110076331A1, “Use of Deuterium Oxide as an Elastase Inhibitor” (priority 2008, published 2011).

Tests used:
[1] = test system: white New Zealand rabbits; assay: Animal model for myocardial reperfusion damage (coronary artery ligature); assay type: in vivo, rabbit; settings: intravenous D2O isotonic saline 15 minutes before or 25 minutes after reopening of the coronary artery; vs H2O-treated animals
Method: In an animal model for reperfusion damage a reduced blood supply to the heart muscle tissue was achieved by ligature of a coronary artery in male white New Zealand rabbits, which led to damage (Bidouard, J. P. et al.; SSR69071, an elastase inhibitor, reduces myocardial infarct size following ischemia reperfusion injury, Eur J Pharmacol. 2003; 461:49-52). By thoracotomy a side branch of the left coronary artery was closed by ligature for 30 minutes and then opened again in order to achieve reperfusion over 120 minutes. Before removal of the heart an ink bolus (pelican ink) was introduced to the ascending aorta. To investigate the effect of D2O on reperfusion damage the animals were divided into three groups of two animals each. Two groups received an intravenous treatment with D2O in the form of isotonic saline either 15 minutes before (experimental group 1) or 25 minutes after (experimental group 2) reopening of the coronary artery, the other group (control group) was treated with H2O as isotonic saline. After removal of the heart, unclamping of the aorta, formalin fixation and paraffin embedding the heart was investigated for homogeneity of ink distribution in the capillary system through three cross sections and by immunohistochemistry. The immunohistochemical detection of granulocytes occurred by a-naphthol chloroacetate esterase staining. […]

Wistar rats = assay: Animal model of infectious peritonitis (S. aureus ATCC 25923), peritoneal lavage; assay type: in vivo, rat; settings: peritoneal lavage 4 hours after S. aureus, vs isotonic saline
Method: Male Wistar rats received a catheter for peritoneal dialysis and for induction of peritonitis and for further peritoneal dialysis. A purulent peritonitis was produced by introduction of a suspension of S. aureus ATCC 25923 (1×10^9 c.f.u. in 0.5 mL). After 4 hours peritoneal lavage was carried out either with isotonic saline or with isotonic […]. After the death of the animals, but at the latest after 24 hours, bacterial infestation and the inflammatory reaction in the peritoneum were investigated histologically.

Long-Evans rats = assay: Cerebral ischemia/reperfusion animal model; assay type: in vivo, rat; settings: D2O in isotonic saline infused 15 minutes before ischemia and right before reperfusion; vs H2O
Method: The effect of D2O on cerebral ischemia was investigated in an animal model. For this purpose cerebral ischemia was produced for 1 hour in adult Long-Evans rats by closure of both carotid arteries, which followed reperfusion over 24 hours. Final observation with evaluation of neurovegetative symptoms occurred (spontaneous activity, coordinated walking, stretching of the front paw and climbing). Damage to the brain tissue was then investigated histologically. In two experimental groups of three rats each, either D2O (experimental group) or H2O (control group) in isotonic saline was infused in the animals 15 minutes before initiation of ischemia and right before subsequent reperfusion.

[2] = test system: patients with Wegener's disease; assay: D2O infusions in Wegener's granulomatosis (open study); assay type: in vivo, human; settings: 500 mL isotonic saline prepared with 70% D2O infused once a day over a week in addition to individual therapy; vs conventionally treated patients
Method: Activation of neutrophil granulocytes is assigned importance in the pathogenesis of Wegener granulomatosis. The disease activity can be determined by determining proteinase 3-antineutrophil cytoplasmic antibodies (PR3-ANCA).
In patients with Wegener's disease in an open study the effect of additional infusion of 500 mL of an isotonic saline solution prepared with 70% D2O was investigated once a day over a week in addition to individual systemic therapy in five patients. Determination of PR3-ANCA in the serum before and after 1 week after the last D2O infusion served as control parameter. Five patients in whom individual therapy was used exclusively without additional infusions served as comparison. […] This permits the conclusion that systemic use of D2O for adjunctive therapy of systemic vasculites is suitable.

[3] = test system: subjects with acute sinusitis; assay: Aerosol inhalation in acute sinusitis (rhinoendoscopy); assay type: in vivo, human; settings: D2O aerosol with 150 mM NaCl inhaled for 15 minutes
Method: Aerosols from D2O and H2O each mixed with 150 mM NaCl were prepared according to example 2. Subjects with acute sinusitis in the maxillary sinus area were divided into two groups. The experimental group inhaled the D2O aerosol for 15 minutes, the control group the H2O aerosol. During inhalation the subjects were relied on to inhale through the nose as much as possible. Every 3 hours after inhalation a rhinoendoscopic examination of the sinuses was conducted.

[4] = test system: subjects with the minor form of RBA; assay: Gel treatment of recurring benign aphthosis (RBA); assay type: in vivo, human; settings: D2O gel (example 1) three times a day; three days after first application
Method: Eight volunteer subjects with the minor form of RBA (diameter of round to oval erosion is 3-5 mm) at locations of the oral mucosa readily accessible to optical inspection (and especially cheek mucosa and mucosa in the lower jaw area) were randomized into two groups of four subjects each (experimental group and control group) and the size (diameter) of the aphthae (initial value) was determined precisely at 0.5 mm optically. For size determination only the gray-covered eroded surface was considered and the red edge area was not considered. The first aphthosis symptoms of the subjects in both groups were at least 2 days old and at most 4 days old. The experimental group received a D2O gel prepared according to example 1 three times a day applied with an appropriate applicator to the erosion (aphtha). It was ensured that the applied gel covered the entire surface of the aphtha plus a 2-3 mm wide edge and was allowed to act at least for 5 minutes. The control group was treated similarly with an identical dose and application of an H2O prepared according to example 1. […] For the experimental group an average reduction in diameter relative to the initial value of 30±10% can be detected and in the control group an average increase in aphthae diameter by 15±10% was observed.

[5] = test system: patients with psoriasis vulgaris; assay: Half-side hydrogel experiment in psoriasis vulgaris; assay type: in vivo, human; settings: 2 wt % Carbopol 980 gel with 1 wt % urea, twice a day, after 4 weeks; vs H2O gel
Method: A half-side experiment was conducted by means of hydrogel to determine the effect of D2O in psoriasis vulgaris. The gel was a 2 wt % Carbopol 980 with 1 wt % urea. The pH value of the gel was set at 6.5 with NaOH solution. […] The local psoriasis severity index (LPSI) was used for evaluation (Henneicke-von Zepelin, H. H., Mrowietz, U., Färber, L., Bruck-Borchers, K., Schober, C., Huber, J., Lutz, G., Kohnen, R., Christophers, E., Welzel, D., Highly purified omega-3-polyunsaturated fatty acids for topical treatment of psoriasis. Results of a double-blind, placebo-controlled multicenter study. Br J Dermatol. 1993; 129:713-7). The patients were relied on to apply the content of tubes marked “right” and “left” twice a day on the corresponding lesions on the right or left elbow. A gel produced with D2O was found in one tube, the gel in the other tube was prepared with H2O. Division occurred randomly. LPSI was determined once a week.

[2H]O[2H] [D2O, deuterium oxide]
heart muscle damage (granulocytes, capillary ink marking) [1]: significantly lower heart muscle damage
inflammatory activity in the peritoneum (Wistar rats; histology): lower inflammatory activity
number of bacteria in the quantitative culture (Wistar rats): reduced number of bacteria
reperfusion damage (granulocytes in histological sections, neurological behavior) (Long-Evans rats): significant effect on the reduction in reperfusion damage
PR3-ANCA values in the serum [2]: stronger reduction of PR3-ANCA values
mucosal swelling ([3]; vs H2O aerosol control group): significant reduction of mucosal swelling
outflow of secretion ([3]; vs control group): improved outflow of secretion
average reduction in aphthae diameter relative to the initial value [4]: 30±10%
local psoriasis severity index (LPSI) [5]: significant reduction of LPSI
